In patent publication US5494932A, “Sulfonic stilbene derivatives in the treatment of viral disease” (Merrell Dow Pharmaceuticals Inc., priority 1991, dated 1996):
Like-named read-outs stand apart in the source and are kept apart here.

Experiments:
HCMV = experiment: Plaque reduction assay, HCMV; type: cell-based
Experimental: (§1) Protocol: Plaque reduction assay. Treatment after adsorption during incubation.

HIV-1 infected JM cells = experiment: Treatment of HIV-1 infected JM cells with DIDS, SITS and ddC; type: cell-based, HIV-1 (human T cell line JM); conditions: 5 μM
Experimental: Protocol: JM cells were infected with HIV to give approximately 100 syncytia after 3 days. Virus adsorption was at room temperature for 2 hours. The cells were then washed thoroughly and distributed in wells of a tissue culture plate at a concentration of 1×10^5 cells/well. At 24 hours post infection either DIDS (100 μg/ml), SITS (100 μg/ml), or ddC (5 μM) were added to wells having infected cells. As virus controls, some wells had no drug added. At 42 hours post infection other wells received either ddC (5 μM), SITS (100 μg/ml), or DIDS (100, 50, 25, 12.5, 6.25 μg/ml). Syncytia were scored at 3 and 4 days post-infection and the supernatant fluids were harvested after 3 and 4 days for p24 core antigen determination.

[1] = test system: virus-induced cell fusion (gp120-CD4 dependent); experiment: Anti-syncytial cocultivation assay: H9 cells chronically infected with HIV-1 RF mixed with uninfected C8166 cells; type: cell-based, HIV-1 RF; human H9 and C8166 cells; conditions: for blocking virus-induced cell fusion and death: summary statement
Excerpt: Syncytial cell formation depends on the interaction of gp120, expressed in the membranes of infected cells, with the CD4 antigen on neighboring cells (Camerini and Seed, 1990). We utilized a cell cocultivation model to examine the effect of the stilbene disulfonic acids on the gp120-CD4 dependent fusion process. This system consists of mixing H9 cells chronically infected with HIV-1 RF (gp120^+ cells) with uninfected C8166 cells (CD4^+ cells) as the fusion indicator. In this assay, cell fusion occurred within 2 to 3 hours of mixing at 37° C. and substantial syncytia were observed after a further 3 to 4 hours (FIG. 1, Panel A). […] These findings with the sulfated polysaccharides were consistent with a previous report (Montefiori et al., 1990).
The effect of the stilbene disulfonic acids and various sulfated polysaccharides on virus-induced cell fusion. In this assay, 10^5 H9 cells, chronically infected with the HIV-1 strain RF, were cocultured with 10^5 uninfected C8166 cells in the absence and presence of the test compounds. FIG. 1A: Positive control, no compound addition; FIG. 1B: 100 μg/ml DIDS; FIG. 1C: 100 μg/ml SITS; FIG. 1D: positive control; FIG. 1E: 10 μg/ml 500,000 MW dextran sulfate; FIG. 1F: 250 μg/ml heparin.
CD4^+ uninfected C8166 cells were seeded into 24-well trays ([…]) that contained growth medium and various concentrations of test compounds. H9 cells, chronically infected with the RF strain of HIV-1, were washed and then added as a source of gp120^+ cells at 10^5 cells/well except for the noncytopathic control: those wells received uninfected H9 cells. The trays were then incubated at 37° C. and the cocultures were observed between 1 and 6 hours p.i. Syncytia were recorded on photographic film.
Protocol: H9 cells chronically infected with RF strain of HIV-1 and uninfected C8166 cells were mixed in the presence of either DIDS, SITS, H2 DIDS, dextran sulfate, or heparin (100 μg/ml). The cells were observed after 2, 31/2 and 51/2 hours and the amount of cell fusion quantified.
Protocol: H9 cells chronically inected with HIV-1 and uninfected C8166 cells were mixed in the presence of either DIDS, SITS, H2 DIDS, dextran sulfate, heparin (at 100 μg/ml), OKT4 or OKT4A (at a 1/50 dilution). The cells were observed after 4 hours and the amount of cell fusion quantitied. OKT4 and OKT4A are monoclonal antibodies that bined the CD4 cell surface antigen.

HSV 2 = experiment: Plaque reduction assay, HSV 2; type: cell-based
Experimental: as §1

HIV-1 = conditions: cited from earlier work
[2] = test system: virus-induced cell fusion (gp120-CD4 dependent); experiment: Cell fusion after pretreatment of uninfected C8166 cells, washing and mixing with chronically infected H9 cells; type: cell-based, HIV-1; human H9 and C8166 cells; conditions: cells pretreated and washed before mixing with H9 cells
Experimental: In the next experiments, CD4+ C8166 cells were pretreated overnight with either DIDS (100 μg/ml), SITS (100 μg/ml) or drug-free medium. Unabsorbed compounds were removed by repeated washings and chronically infected H9 cells were then added. […] Thus, cell washing prior to mixing with the H9 cells oblated the protective effect observed above (FIG. 1, Panel E) when 500,000 MW dextran sulfate was continually present in the assay.
Pretreatment of CD4+ C8166 cells with DIDS blocks fusion with chronically infected H9 cells. In this experiment, C8166 cells were pretreated overight with various stilbene disulfonic acids or drug-free medium (fusion control). The cells were washed, incubated with chronically infected H9 cells and syncytia were photographed at 6 hours post-mixing. Pretreatment conditions were as follows: […]: 100 μg/ml SITS; FIG. 2B: drug-free medium; and FIG. 2C: 100 μg/ml DIDS.
In pretreatment experiments, CD4^+ C8166 cells were maintained in serum-free medium (RPMI 1640 plus human transferrin 50 μg/ml, bovine insulin 20 μg/ml, bovine serum albumin 2 mg/ml) and were exposed to compound by overnight incubation. Treated cells were washed twice in fresh serum-free medium and then cocultured with chronically infected H9 cells in serum-free medium. Otherwise, cell numbers, assay conditions and scoring of syncytia were as described above.
Protocol: C8166 cells were pretreated for 2.5 hours with either DIDS, SITS or H2 DIDS (at 500 and 250 μg/ml). The cells were then washed three times and mixed with H9 cells chronically infected with HIV-1. Cell fusion was quantified after 4 and 24 hours.

In the case of `Nc1nc(O)c2ncn(COC(CO)CO)c2n1` [Gancyclovir, reference compound], the Plaque counts (HCMV; 0.1 μg/ml, first count) is reported as 34, the Plaque counts (HCMV; 0.1 μg/ml, second count) is reported as 39 and the Plaque counts (HCMV; 1 μg/ml, first count) is reported as 6. For the same compound, the Plaque counts (HCMV; 1 μg/ml, second count) was 13, the Plaque counts (HCMV; 1 μg/ml, third count) was 1 and the Plaque counts (HCMV; 10 μg/ml, first count) was 3. The Plaque counts (HCMV; 10 μg/ml, second count) was 2, the Plaque counts (HCMV; 10 μg/ml, third count) was 7 and the Plaque counts (HCMV; 1000 μg/ml, first count) was 0. The Plaque counts (HCMV; 1000 μg/ml, second count) was 0, the Plaque counts (HCMV; 1000 μg/ml, third count) was 0 and the activity at 0.1 µg/mL (HCMV; Human betaherpesvirus 5, 0.1 μg/ml, read-out: Mean % VC (plaques)) was over 100%. For the same compound, the activity at 1 µg/mL (HCMV; Human betaherpesvirus 5, 1 μg/ml, read-out: Mean % VC (plaques)) was 22%, the activity at 10 µg/mL (HCMV; Human betaherpesvirus 5, 10 μg/ml, read-out: Mean % VC (plaques)) was 10% and the activity at 1000 µg/mL (HCMV; Human betaherpesvirus 5, 1000 μg/ml, read-out: Mean % VC (plaques)) was 0%.
With `Nc1ccn([C@H]2CC[C@@H](CO)O2)c(=O)n1` [ddC, reference compound] the “Mean syncytia/well 3 days p.i.” value (HIV-1 infected JM cells; added 24 hr) was 65, the “Mean syncytia/well 4 days p.i.” value (HIV-1 infected JM cells; added 24 hr) was 51 and the “p24 antigen 3 days p.i.” value (HIV-1 infected JM cells; added 24 hr) was 9000 pg/mL. For the same compound, the “p24 antigen 4 days p.i.” value (HIV-1 infected JM cells; added 24 hr) was 3100 pg/mL, the “Mean syncytia/well 3 days p.i.” value (HIV-1 infected JM cells; added 42 hr) was “As VC” and the “Mean syncytia/well 4 days p.i.” value (HIV-1 infected JM cells; added 42 hr) was “As VC”. For the same compound, the “p24 antigen 3 days p.i.” value (HIV-1 infected JM cells; added 42 hr) was 17000 pg/mL, the “p24 antigen 4 days p.i.” value (HIV-1 infected JM cells; added 42 hr) was 67000 pg/mL and the activity at 5 µM (HIV-1 infected JM cells; Human immunodeficiency virus 1, 72 h, added 24 hr, read-out: p24 antigen 3 days p.i., % control) was 19%. The activity at 5 µM (HIV-1 infected JM cells; Human immunodeficiency virus 1, 72 h, added 42 hr, read-out: p24 antigen 3 days p.i., % control) was 36%, the activity at 5 µM (HIV-1 infected JM cells; Human immunodeficiency virus 1, 96 h, added 24 hr, read-out: p24 antigen 4 days p.i., % control) was 3.5% and the activity at 5 µM (HIV-1 infected JM cells; Human immunodeficiency virus 1, 96 h, added 42 hr, read-out: p24 antigen 4 days p.i., % control) was 75%.
In the case of “Dextran sulfate (8,000) [reference compound]”, the “cell fusion / syncytia” value ([1]; 100 μg/ml, at the time of cell mixing) is reported as “totally ineffective” and the “blocking virus-induced cell fusion and death” value [1] is reported as “ineffective at blocking virus-induced cell fusion and death”.
`Nc1nc2c(ncn2COCCO)c(=O)[nH]1` [Acyclovir, reference compound] gave a Plaque counts (HSV 2; 0.1 μg/ml, first count) of 44, an activity at 0.1 µg/mL (HSV 2; 0.1 μg/ml, read-out: Mean % VC (plaques)) of 70% and a Plaque counts (HSV 2; 0.1 μg/ml, second count) of 34. For the same compound, the Plaque counts (HSV 2; 1 μg/ml, first count) was 31, the activity at 1 µg/mL (HSV 2; 1 μg/ml, read-out: Mean % VC (plaques)) was 54% and the Plaque counts (HSV 2; 1 μg/ml, second count) was 31. For the same compound, the Plaque counts (HSV 2; 1 μg/ml, third count) was 29, the Plaque counts (HSV 2; 10 μg/ml, first count) was 0 and the activity at 10 µg/mL (HSV 2; 10 μg/ml, read-out: Mean % VC (plaques)) was 0%. It also gave a Plaque counts (HSV 2; 10 μg/ml, second count) of 1, a Plaque counts (HSV 2; 10 μg/ml, third count) of 0 and a Plaque counts (HSV 2; 100 μg/ml, first count) of 0. For the same compound, the activity at 100 µg/mL (HSV 2; 100 μg/ml, read-out: Mean % VC (plaques)) was 0%, the Plaque counts (HSV 2; 100 μg/ml, second count) was 0 and the Plaque counts (HSV 2; 100 μg/ml, third count) was 0.
In the case of Dextran Sulfate [reference compound], the “Syncytia after 3 1/2 hrs” value ([1]; 100 μg/ml, virus control +++) is given as 0, the “Syncytia after 5 1/2 hrs” value ([1]; 100 μg/ml, virus control +++) is given as 0 and the “inhibition of HIV-1 replication in vitro” value (HIV-1) is given as “highly effective inhibitors”.
In the case of pentosan polysulfate, the “inhibition of HIV-1 replication in vitro” value (HIV-1) is given as “highly effective inhibitors”.
For Heparin [reference compound], the “cell fusion relative to nontreated virus control” value ([1]; 250 μg/ml, Panel F) was “totally ineffective”, the “blocking virus-induced cell fusion and death” value [1] was “ineffective at blocking virus-induced cell fusion and death” and the “protective effect after pretreatment” value [2] was “no protective effect”. The “inhibition of HIV-1 replication in vitro” value (HIV-1) was “highly effective inhibitors”.
